The results in this text go back to patent publication US8114393B2, “Methods and compositions for phosphate binding” (Wisconsin Alumni Research Foundation, priority 2005, dated 2012).

The test system of experiment [1] is intestinal phosphorus absorption. Nature of the experiment: Fecal phosphorus content, increasing dietary levels of DAB-8 hydroacetate for three weeks. In kind it is in vivo, rats. The text has this: Materials and Methods. Young male Sprague-Dawley rats weighing approximately 90 g were fed a purified diet containing 0.47% calcium and 0.2% inorganic phosphorus, solidified with molten agar, for 5 days. After this acclimation period, the rats were divided into 5 groups by body weight. One group remained on the control diet while the other 4 groups were fed diets containing increasing levels of DAB-8 in the hydroacetate salt form (0.09 to 0.7%). After 1, 2 and 3 weeks on the diets, the rats were moved to metabolic caging and 24 to 48 hour fecal collections were obtained. The feces were dried then ashed in a muffle oven at 700° C. for 24 hours. The resulting ash was dissolved in 6N HCl and the phosphorus content was measured using an in-house colorimetric assay.
Data are expressed as means±SEM. Data were subjected to analysis of variance (ANOVA), and group means compared using Tukey, Scheffe and Fisher's LSD test.
Young rats were either control diet (“0”), or the same diet containing one of four levels of DAB-8 as the hydroacetate for three weeks. Feces were collected from the rats using metabolic housing for 24 to 48 hours at the end of the first (week 1), second (week 2) or third (week 3) weeks. Feces was dried, then ashed in a muffle oven. Resulting ash was dissolved in 6N HCl. Phosphorus content was determined using an in-house colorimetric assay. *Indicates significant difference from control diet with a p-value of […].

Experiment [2] relates to Intestinal Phosphate Absorption. As to the kind of experiment: Intestinal phosphate absorption: oral 33P dose after gavage of phosphate binder. Format: in vivo, rats. Conditions: 14.4 mg Renagel or 10 mg DAB-8 as acetate or citrate; 10 mM KH2PO4; 60 min. As for the experimental part:
Animals. Male Sprague-Dawley rats (Harlan Sprague-Dawley, Madison, Wis.) weighing approximately 120 grams were used in all experiments.
In experiments to measure ^33P absorption, the rats were fed a laboratory chow diet (Lab Diet 5012, Richmond, Ind.) containing 1% calcium and 0.7% phosphorus ad libitum for less than one week prior to the experiment.
Intestinal Phosphate Absorption. Following an overnight fast, rats were administered 0.5 mL water or an oral phosphate binder dissolved in water via gastric gavage. A second dose of 0.5 mL containing 3 μCi ^33P (as H3PO4, specific activity 155.8 Ci/mg, New England Nuclear/Perkin Elmer, Boston, Mass.) in a 10, 50, or 100 mM KH2PO4 buffer at pH 7.4 was immediately administered via gastric gavage. Rats were killed by CO2 asphyxiation immediately or 60 minutes after the oral dose. The rats killed immediately (labeled “0 min control” in figures) were used to determine if the oral ^33P dose was properly administered and completely recovered.
Blood was collected via heart puncture and centrifuged at 1500×g for 15 minutes at 22° C. to yield serum. A suture was tied to the cranial end of the esophagus to contain liquid inside the stomach. The entire digestive tract was then removed and allowed to dissolve for several days in concentrated HNO3 (approximately 1 mL HNO3 per gram tissue). The exact volume of the dissolved digestive tract was determined by diluting the dissolved tissues to equal volumes with water.
The amount of radioactivity in total body serum and total volume of dissolved tissue was determined following liquid scintillation counting of 50 μL aliquots in triplicate (Tri-Carb Liquid Scintillation Analyzer, Perkin-Elmer/Packard, Boston, Mass.). Total body serum was estimated to be 40 mL serum/kg body weight. (Hawk T et al., 1999, Formulary for laboratory animals, Ames, Iowa: Iowa State University Press.)
Statistical analysis. Data are presented as means±standard error of the means (SEM). Treatment groups were compared by a fully factorial analysis of variance (ANOVA) and means were subjected to Tukey, Scheffe, and Fisher's Least-Significant-Difference (LSD) tests (Systat 5.2.1, Systat Software, Inc., Point Richmond, Calif.). Differences were considered significant if at least two of the tests detected significance with a p-value <0.05, unless specified otherwise.
Materials and Methods. The relevant materials and methods were the same as set forth above except that instead of using “0.5 mL of water or 39.5 mg calcium acetate, 14.4 mg RENAGEL, or up to 132.8 mg of test dendrimer,” the following was used “0.5 mL of water, 14.4 mg RENAGEL or 10 mg DAB-8 as the hydroacetate or hydrocitrate form dissolved in water.”

Take “Polypropylenimine octaamine Dendrimer decahydroacetate [DAB-8 as acetate]”: the “fecal phosphorus content versus control diet, first 2 weeks on the diet” value in experiment [1] (all four levels of the phosphate binder (0.09 to 0.7%)) was “significant increase”. In experiment [1] (daily consumption, 0.09 to 0.7% of diet), the fecal phosphorus output entry is reported as “dose-dependent increase”. The “dietary phosphorus absorption in vivo” value in experiment [1] (inferred from fecal phosphorus, 0.09 to 0.7% of diet) is listed as “dose-dependent reduction”. Also, in experiment [1] (only the highest dietary level), the “fecal phosphorus content versus control diet, week 3” value was “retains significance”. Besides, in experiment [2], the “33P in the serum compared with vehicle pretreatment (FIG. 26)” value was “significantly less” and the “33P retained in the gut compared with vehicle pretreatment (FIG. 25)” value was “significantly more”.
